From patent publication EP0142333A2, “Glycerol derivatives” (ONO PHARMACEUTICAL CO., LTD., priority 1983, dated 1985)
Where a name gives a salt, the structure may show the parent alone.

Assays:
mice = experiment: Acute toxicity by intravenous administration; format: in vivo; conditions: intravenously administered to tail vein in mice at the dose of 50 mg/kg
[1] = test system: PAF-induced platelet aggregation; experiment: Inhibitory effect on PAF-induced platelet aggregation (platelet rich plasma, Born aggregometer); format: cell-based; conditions: Cavia porcellus; platelet rich plasma of male guinea-pig; PAF (10nM)-induced aggregation; absorbancy method
Procedure: (1) Inhibitory effect on PAF-induced platelet aggregation
Whole blood of male guinea-pig was collected with a 3.8%. aqueous solution of trisodium citrate in a proportion of 9:1 (v/v) and the mixture was centrifuged for 10 minutes at room temperature (120 x g) to obtain platelet rich plasma. Using obtained plasma, PAF (10nM)-induced aggregation was determined by the absorbancy method using an aggregometer of Born (cf. J. Physiol., 162, 67 (1962)) .
The evaluation is conducted using the concentration of compounds of the present invention required to produce a 50% inhibition of each effect, i.e. IC50.

| SMILES | mortality (dead/used) (mice) | IC50 [1] |
| --- | --- | --- |
| CCCCCCCCCCCCCCCCOCC(COCCCCCCC[N+](C)(C)C)OCC (racemic) [5(a), (2RS)-1-0-hexadecyl-2-0-ethyl-3-0-[7-(trimethylammonio)heptyl]glycerol·methanesulfonic acid salt] | 0/5 | – |
| CCCCCCCCCCCCCCCCOCC(COCCCCCCC[N+](C)(C)C)OCCC (racemic) [5(b), (2RS)-1-0-hexadecyl-2-0-n-propyl-3-0-(7-(trimethylammonio)heptyl]glycerol·methanesulfonic acid salt] | 0/5 | 1800 nM |
| CCCCCCCCCCCCCCCCOCC(COCCCC[N+](C)(C)C)C(C)C (racemic) [Example 2(b), (2RS)-l-0-hexadecyl-2-dehydroxy-2-iso-propyl-3-0-[4-(trimethylammonio)butyl]glycerol·iodide] | 2/5 | – |
| CCCCCCCCCCCCCCCCOCC(CCC)COCCCC[N+](C)(C)C (racemic) [Example 2, (2RS)-1-0-hexadecyl-2-dehydroxy-2-n-propyl-3-0-[4-(trimethylammonio)butyl]glycerol·iodide] | – | 5300 nM |
| CCCCCCCCCCCCCCCCOCC(COCCCCCCC[N+](C)(C)C)OC (racemic) [Example 5, (2RS)-1-0-hexcadecyl-2-0-methyl-3-0-[7-(trimethylammonio)heptyl] glycerol·methanesulfonic acid salt] | 0/5 | 1300 nM |
| C=CCOC(COCCCCCCCCCCCCCCCC)COCCCC[N+](C)(C)C (racemic) [Example 7, (2RS)-1-0-hexadecyl-2-0-allyl-3-0-[4-(trimethylammonio)butyl] glycerol·iodide] | – | 3800 nM |
